Structures are written as SMILES. Where two headings read alike, the source gives them in different places. Bounds are passed on as bounds.

This assay concerns H460 non-cell lung cancer human tumor cell line. Put plainly: In vitro human tumor cell line cytotoxicity (proliferation) assay, AlamarBlue. The class given is cell-based. On the procedure: IC50 values are reported in micromolar and result from exposure of compound at various concentrations for 2 hrs followed by a wash step and addition of fresh media followed by growth and cell viability staining and comparison to a media only treated control.
Specifically, exponentially growing cells are seeded at a density of 4×10^3 cells per well in a 96 well plate and incubated at 37° C. in 5% CO2, 95% air and 100% relative humidity for 24 hours prior to addition of test compounds. Compounds are solubilized in 100% DMSO at 200 times the desired final test concentration. At the time of drug addition, compounds are further diluted to 4 times the desired final concentration with complete medium. Aliquots of 50 μl of compound at specified concentrations are added to microtiter wells already containing 150 μl of medium, resulting in the final drug concentration reported. After drug addition, the plates are incubated for an additional 2 hours at 37° C., 5% CO2, 95% air, and 100% relative humidity, then the drug is washed off and fresh medium is added and the plates are incubated for addition 70 hrs at 37° C., 5% CO2, 95% air and 100% relative humidity. At the end of this incubation, the viable cells are quantified using the AlamarBlue assay. The drug concentration resulting in growth inhibition of 50% (IC50) is calculated using Prism software (Irvine, Calif.), and the results are listed in the table.

Where [1] appears, read: Homo sapiens, NCI-H460, H460 cells, under air, 2 hrs exposure, wash, then 70 hrs growth, read-out: IC50 (air).
The mark [2] stands for this setting: Homo sapiens, NCI-H460, H460 cells, under nitrogen, 2 hrs exposure, wash, then 70 hrs growth, read-out: IC50 (N2).
Setting [3] is: Homo sapiens, NCI-H460, read-out: IC50 (N2), H460 cells, under nitrogen, 2 hrs exposure, wash, then 70 hrs growth.
Where [4] appears, read: Homo sapiens, NCI-H460, read-out: IC50 (air), H460 cells, under air, 2 hrs exposure, wash, then 70 hrs growth.
Where [5] appears, read: H460 cells, under air, 2 hrs exposure, wash, then 70 hrs growth, read-out: IC50 (air).
The mark [6] stands for this setting: H460 cells, under nitrogen, 2 hrs exposure, wash, then 70 hrs growth, read-out: IC50 (N2).

As usually defined, the IC50 is the concentration that inhibits the measured activity by half. On to `CC(OP(=O)(N1CC1)N1CC1)c1ccc([N+](=O)[O-])c(CF)c1` (stereo not shown) [compound 2822], for which the concentration for half-maximal inhibition (IC50) runs as follows: under setting [1], 3.1 µM; under setting [2], 0.3 µM.
For `CC(OP(=O)(N1CC1)N1CC1)c1ccc([N+](=O)[O-])c(C#N)c1` (stereo not shown) [compound 2710] the same measures were 3 µM and 0.03 µM.
For `CCCCn1c([N+](=O)[O-])cnc1COP(=O)(N1CC1)N1CC1` [compound 2594] the same measures were 7.4 µM and 0.15 µM.
Taken in the same sequence, the figures for `CC(OP(=O)(N1CC1)N1CC1)c1ccc([N+](=O)[O-])c(-n2cnc3ccccc32)c1` (stereo not shown) [compound 2737] were 21 µM and 0.2 µM.
`COc1ccc(C(C)OP(=O)(N2CC2)N2CC2)c([N+](=O)[O-])c1` (stereo not shown) [compound 2616]: the IC50 runs as follows: under setting [1], 17 µM; under setting [2], 3.7 µM.
For `CC(OP(=O)(N1CC1)N1CC1)c1cc(N(C)CCN(C)C)c([N+](=O)[O-])cc1F` (stereo not shown) [compound 2745] the same measures were 58 µM and 0.3 µM.
Taken in the same sequence, the figures for `O=[N+]([O-])c1ccc2c(c1)CCCC2OP(=O)(N1CC1)N1CC1` (stereo not shown) [compound 2675] were 3.4 µM and 0.05 µM.
Taken in the same sequence, the figures for `CC(C)C(OP(=O)(N1CC1)N1CC1)c1ncc([N+](=O)[O-])n1C1CCCC1` (stereo not shown) [compound 2619] were 99 µM and 2.3 µM.
As for `O=[N+]([O-])c1ccc(COP(=O)(N2CC2)N2CC2)cc1Cl` [compound 2579], the IC50 under setting [1] was found to be 2.6 µM and the concentration for half-maximal inhibition (IC50) under setting [2] stood at 1.3 µM.
`CC(OP(=O)(N1CC1)N1CC1)c1ccc([N+](=O)[O-])c(-c2cccc(C#N)c2)c1` (stereo not shown) [compound 2801]: the half-inhibitory concentration (IC50) by setting is: under setting [1], 47 µM; under setting [2], 2.2 µM.
For `Cn1c([N+](=O)[O-])cnc1C(OP(=O)(N1CC1)N1CC1)C(C)(C)C` (stereo not shown) [compound 2535] the same measures were 500 µM and 26 µM.
For `O=[N+]([O-])c1ccccc1COP(=O)(N1CC1)N1CC1` [compound 2578] the same measures were 28 µM and 6 µM.
For `CCN(CC)c1cc(C(C)OP(=O)(N2CC2)N2CC2)c(F)cc1[N+](=O)[O-]` (stereo not shown) [compound 2730] the same measures were 22 µM and 0.7 µM.
In the case of `Cn1c([N+](=O)[O-])cnc1C(CO)OP(=O)(C1CC1)N1CC1` (stereo not shown) [compound 2654], the concentration for half-maximal inhibition (IC50) is, setting by setting: under setting [1], more than 500 µM; under setting [2], 260 µM.
For `CC(C)n1c([N+](=O)[O-])cnc1COP(=O)(N1CC1)N1CC1` [compound 2627] the same measures were 32 µM and 0.5 µM.
Taken in the same sequence, the figures for `O=[N+]([O-])c1ncn(-c2ccc(C(F)(F)F)cc2)c1COP(=O)(N1CC1)N1CC1` [compound 2656] were 2.4 µM and 0.1 µM.
For `CC(C)Oc1cc([N+](=O)[O-])ccc1COP(=O)(N1CC1)N1CC1` [compound 2599] the same measures were 1.5 µM and 0.08 µM.
Regarding `CC(OP(=O)(N1CC1)N1CC1)c1ccc([N+](=O)[O-])c(N=[N+]=[N-])c1` (stereo not shown) [compound 2691], the IC50 runs as follows: under setting [1], 2.3 µM; under setting [2], 2.3 µM.
Take `C=Cc1cc(C(C)OP(=O)(N2CC2)N2CC2)ccc1[N+](=O)[O-]` (stereo not shown) [compound 2776]: the half-inhibitory concentration (IC50) by setting is: under setting [1], 2.5 µM; under setting [2], 0.4 µM.
Taken in the same sequence, the figures for `CC(OP(=O)(N1CC1)N1CC1)c1cc(-n2cnc(CO)c2)c([N+](=O)[O-])cc1F` (stereo not shown) [compound 2760] were 53 µM and 2.4 µM.
Turning to `CC(OP(=O)(N1CC1)N1CC1)c1ccc([N+](=O)[O-])c(-n2cnc([N+](=O)[O-])c2)c1` (stereo not shown) [compound 2728], the IC50 runs as follows: under setting [3], 0.2 µM; under setting [4], 22 µM.
With `COc1ccc(COP(=O)(N2CC2)N2CC2)c([N+](=O)[O-])c1` [compound 2589], the IC50 under setting [1] is 9.6 µM and the half-inhibitory concentration (IC50) under setting [2] stood at 0.1 µM.
Taken in the same sequence, the figures for `CC(OP(=O)(N1CC1)N1CC1)c1ccc([N+](=O)[O-])c(-c2cn(-c3ccc(F)cc3)nn2)c1` (stereo not shown) [compound 2806] were 5.4 µM and 0.3 µM.
For `CC(OP(=O)(N1CC1)N1CC1)c1ccc([N+](=O)[O-])c(-n2ccc3ccccc32)c1` (stereo not shown) [compound 2734] the same measures were 2.5 µM and 1.6 µM.
For `CC(OP(=O)(N1CC1)N1CC1)c1ccc([N+](=O)[O-])c(-n2ccnn2)c1` (stereo not shown) [compound 2772] the same measures were 26 µM and 0.05 µM.
`Cn1c(C(OP(=O)(N2CC2)N2CC2)C(F)(F)F)cnc1[N+](=O)[O-]` (stereo not shown) [compound 2118]: the IC50 runs as follows: under setting [1], 6.2 µM; under setting [2], 0.01 µM.
Taken in the same sequence, the figures for `CC(OP(=O)(N1CC1)N1CC1)c1ccc([N+](=O)[O-])c(-n2cnc(CO)c2)c1` (stereo not shown) [compound 2746] were 220 µM and 2.6 µM.
For `CC(OP(=O)(N1CC1)N1CC1)c1ccc([N+](=O)[O-])c(-n2cnc(-c3ccccc3)c2)c1` (stereo not shown) [compound 2749] the same measures were 3 µM and 0.1 µM.
With `O=[N+]([O-])c1ccc2c(c1)CCCC2OP(=O)(N1CC1)N1CC1` (stereo not shown) [compound 2676], the half-inhibitory concentration (IC50) runs as follows: under setting [5], 3.7 µM; under setting [6], 0.1 µM.
As for `CC(OP(=O)(N1CC1)N1CC1)c1ccc([N+](=O)[O-])c(N(C)O)c1` (stereo not shown) [compound 2707], the 50% inhibitory concentration (IC50) came out at 0.2 µM under setting [1] and 0.1 µM under setting [2].
Regarding `CC(OP(=O)(N1CC1)N1CC1)c1ccc([N+](=O)[O-])c(C(F)F)c1` (stereo not shown) [compound 2821], the half-maximal inhibitory concentration (IC50) under setting [1] is 5 µM and the IC50 under setting [2] was determined as 0.05 µM.
For the molecule `CC(OP(=O)(N1CC1)N1CC1)c1cc(F)c([N+](=O)[O-])cc1F` (stereo not shown) [compound 2721], the IC50 is 9 µM under setting [1] and 0.02 µM under setting [2].
Taken in the same sequence, the figures for `C#Cc1cc(C(C)OP(=O)(N2CC2)N2CC2)ccc1[N+](=O)[O-]` (stereo not shown) [compound 2792] were 3.7 µM and 0.2 µM.
Taken in the same sequence, the figures for `O=[N+]([O-])c1ccc(COP(=O)(N2CC2)N2CC2)c(-c2ccccc2)c1` [compound 2626] were 3.3 µM and 0.6 µM.
For `CC(OP(=O)(N1CC1)N1CC1)c1ccc([N+](=O)[O-])c(-n2cncn2)c1` (stereo not shown) [compound 2727] the same measures were 31 µM and 0.2 µM.
For the molecule `CC(OP(=O)(N1CC1)N1CC1)c1ccc([N+](=O)[O-])c(-c2ccc(C(F)(F)F)cc2)c1` (stereo not shown) [compound 2774], the IC50 amounted to 3.5 µM under setting [1] and 0.8 µM under setting [2].
Taken in the same sequence, the figures for `O=[N+]([O-])c1ccc2c(c1)CCC2OP(=O)(N1CC1)N1CC1` (stereo not shown) [compound 2652] were 2.2 µM and 0.02 µM.
For `CC(OP(=O)(N1CC1)N1CC1)c1ccc([N+](=O)[O-])c(-n2ccnc2Cl)c1` (stereo not shown) [compound 2765] the same measures were 8.1 µM and 0.03 µM.
As for `COCCN(CCOC)c1cc(C(C)OP(=O)(N2CC2)N2CC2)ccc1[N+](=O)[O-]` (stereo not shown) [compound 2753], the IC50 came to 19 µM under setting [1] and 3.2 µM under setting [2].
Taken in the same sequence, the figures for `CC(C)C(OP(=O)(N1CC1)N1CC1)c1ncc([N+](=O)[O-])n1CCO` (stereo not shown) [compound 2658] were 86 µM and 0.3 µM.
For `Cn1c([N+](=O)[O-])nc(CCN2CCOCC2)c1C(OP(=O)(N1CC1)N1CC1)C(F)(F)F` (stereo not shown) [compound 2147] the same measures were 310 µM and 1.1 µM.
Regarding `CCCC(OP(=O)(N1CC1)N1CC1)c1ccc([N+](=O)[O-])cc1OC` (stereo not shown) [compound 2595], the half-inhibitory concentration (IC50) by setting is: under setting [1], 3.2 µM; under setting [2], 0.2 µM.
Taken in the same sequence, the figures for `CC(OP(=O)(N1CC1)N1CC1)c1ccc([N+](=O)[O-])c(NC2CC2)c1` (stereo not shown) [compound 2687] were 15 µM and 2.2 µM.
Taken in the same sequence, the figures for `C=CCC(OP(=O)(N1CC1)N1CC1)c1ccc([N+](=O)[O-])cc1OC` (stereo not shown) [compound 2569] were 2 µM and 0.05 µM.
For `CC(C)C(OP(=O)(N1CC1)N1CC1)c1ncc([N+](=O)[O-])n1CCN1CCCCC1` (stereo not shown) [compound 2603] the same measures were 29 µM and 0.3 µM.
For `Cn1c([N+](=O)[O-])cnc1C(Cc1ccccc1)OP(=O)(N1CC1)N1CC1` (stereo not shown) [compound 2591], the IC50 is, setting by setting: under setting [1], 19 µM; under setting [2], 0.1 µM.
Taken in the same sequence, the figures for `CC(OP(=O)(N1CC1)N1CC1)c1ccc([N+](=O)[O-])c(F)c1` (stereo not shown) [compound 2678] were 32 µM and 0.4 µM.
In the case of `CC(OP(=O)(N1CC1)N1CC1)c1ncc([N+](=O)[O-])n1C` (stereo not shown) [compound 2551], the IC50 runs as follows: under setting [5], 20 µM; under setting [6], 0.1 µM.
With `CC(OP(=O)(N1CC1)N1CC1)c1ccc([N+](=O)[O-])c(OCC(F)(F)F)c1` (stereo not shown) [compound 2698], the IC50 reads like this: under setting [1], 3.7 µM; under setting [2], 1.6 µM.
On to `CC(OP(=O)(N1CC1)N1CC1)c1cc(-n2cncc2[N+](=O)[O-])c([N+](=O)[O-])cc1F` (stereo not shown) [compound 2743], for which the half-maximal inhibitory concentration (IC50) was 0.2 µM under setting [3] and 3.7 µM under setting [4].
